According to article PMC9572083, “Hybrids of 1,4-Quinone with Quinoline Derivatives: Synthesis, Biological Activity, and Molecular Docking with DT-Diaphorase (NQO1)” (Molecules, 2022):

Experiments:
[1] = test system: Colo-829 cells; experiment: Cytotoxic activity, WST-1 assay, melanoma Colo-829; format: cell-based, human; conditions: for SI (IC50 HFF-1/IC50 cancer line) Colo-829: HFF-1 vs Colo-829; for IC50: Homo sapiens, melanoma Colo-829, 72 h, WST-1
Source text: (§1) Anticancer activity of compounds 11–14 was designated against following human cancer cell lines: melanoma (Colo-829), ovarian cancer (SK-OV-3), breast cancer (MDA-MB-231, T47D and MCF-7), lung cancer (A549) and normal fibroblasts (HFF-1). As a reference substance, the doxorubicin was used. The results are presented in Table 1 as IC50, where IC50 means the concentration of tested compounds (µM) causing the growth inhibition of 50% for given tumor cells. The negative value (Neg.) means that the IC50 is higher than 30 µM. Selectivity index (SI) as the ratio of the IC50 for normal fibroblast (HFF-1) to IC50 of the corresponding cell line, is presented in Table S2.
(§2) Compounds 7–14 and doxorubicin were tested for cytotoxic activity in vitro against panel of human cancer cell lines: melanoma (Colo-829, ATCC, Rockville, MD, USA), ovarian cancer (SK-OV-3, ATCC, Rockville, MD, USA), breast cancer (T47D, MCF-7, and MDA-MB-231, ATCC, Rockville, MD, USA) and lung cancer (A549, ATCC, Rockville, MD, USA). The cultured cells were kept at 37 °C and 5% CO2. The cells were seeded (5 × 10^4 cells/well/[…] DMEM supplemented with 10% FCS and streptomycin/penicillin) using 96-well plates (Nunc Thermo Fisher Scientific, Waltham, MA, USA). The tested compounds 7–14 with the concentration of 1–100 µg/mL DMSO were inducted with the cancer cells for 72 h. The WST-1-formazan (proliferation reagent WST-1 assay, Roche Diagnostics, Mannheim, Germany) was detected using a microplate reader at 450 nm. Results were expressed as a mean value of at least three independent experiments performed in triplicate.

[2] = test system: T47D cells; experiment: Cytotoxic activity, WST-1 assay, breast cancer T47D; format: cell-based, human; conditions: for SI (IC50 HFF-1/IC50 cancer line) T47D: HFF-1 vs T47D; for IC50: Homo sapiens, breast cancer T47D, 72 h, WST-1
Source text: as §1, §2

[3] = test system: MDA-MB-231 cells; experiment: Cytotoxic activity, WST-1 assay, breast cancer MDA-MB-231; format: cell-based, human; conditions: for SI (IC50 HFF-1/IC50 cancer line) MDA-MB-231: HFF-1 vs MDA-MB-231; for IC50: Homo sapiens, breast cancer MDA-MB-231, 72 h, WST-1
Source text: as §1, §2

[4] = biological target: T1, NQO1 (DT-diaphorase, EC 1.6.5.5, human recombinant) (Homo sapiens, UniProt P15559); experiment: NQO1 substrate NADPH recycling enzymatic assay; format: biochemical; conditions: for NQO1 activity (enzymatic conversion rate): compound 10 µmol/L, pH 7.4, 25 °C, absorbance at 340 nm
T1 construct: purchased Sigma-Aldrich
Protocol: The interaction between 1,4-quinone moiety of hybrid and NQO1 protein leads to reduction in quinone to hydroquinone and production of reactive oxide form (ROS). According to a literature method, the ability of hybrids 11–14 and streptonigrin (ST) to be a substrate for NQO1 was examined by measuring the oxidation of NADPH to NADP^+ [29, 32].
Compounds 11–14 (10 µmol/L) were tested as NQO1 substrates using the NADPH recycling assay according to the literature method. The recombinant NQO1 (DT-diaphorase, EC 1.6.5.5, human recombinant, Sigma-Aldrich) was used, and the oxidation of NADPH to NADP^+ was measured at the absorption wavelength of 340 nm on the BioTek 800TS microplate reader (BioKom, Janki, Poland). Compounds were dissolved in dimethyl sulfoxide (2 µL) and added to the 96-well plate. The NQO1 protein (1.4 µg/mL) in 50 mmol/L potassium phosphate buffer (pH = 7.4) was added to each well (198 µL) (Nunc Thermo Fisher Scientific, Waltham, MA, USA). Once the 96-well plate was filled with the assay solutions, except the NADPH solution, it was placed into the instrument and left to sit for 5 min before starting the measurements. The enzymatic reaction was initiated by automatically dispensing the NADPH solution into the wells, and data were recorded at 10 s intervals for 5 min at 25 °C. The linear part of the absorbance vs. time graphs (the first 20 s to 1 min) was fitted, and the slopes were calculated. NADPH oxidation rates were compared with reactions lacking the tested compound. Initial velocities were calculated, and data were expressed as µmol NADPH/µmol NQO1/min. All reactions were carried out at least in triplicate.

[5] = test system: HFF-1 cells; experiment: Cytotoxic activity, WST-1 assay, normal fibroblasts HFF-1; format: cell-based; conditions: Homo sapiens, normal fibroblasts HFF-1, 72 h
Source text: as §1, §2

[6] = test system: A549 cells; experiment: Cytotoxic activity, WST-1 assay, lung cancer A549; format: cell-based, human; conditions: for SI (IC50 HFF-1/IC50 cancer line) A549: HFF-1 vs A549; for IC50: Homo sapiens, lung cancer A549, 72 h, WST-1
Source text: as §1, §2

[7] = test system: MCF-7 cells; experiment: Cytotoxic activity, WST-1 assay, breast cancer MCF-7; format: cell-based, human; conditions: for SI (IC50 HFF-1/IC50 cancer line) MCF-7: HFF-1 vs MCF-7; for IC50: Homo sapiens, MCF7, breast cancer MCF-7, 72 h, WST-1
Source text: as §1, §2

[8] = test system: SK-OV-3 cells; experiment: Cytotoxic activity, WST-1 assay, ovarian cancer SK-OV-3; format: cell-based, human; conditions: for SI (IC50 HFF-1/IC50 cancer line) SK-OV-3: HFF-1 vs SK-OV-3; for IC50: Homo sapiens, ovarian cancer SK-OV-3, 72 h, WST-1
Source text: as §1, §2

T1 sequence (P15559 whole entry): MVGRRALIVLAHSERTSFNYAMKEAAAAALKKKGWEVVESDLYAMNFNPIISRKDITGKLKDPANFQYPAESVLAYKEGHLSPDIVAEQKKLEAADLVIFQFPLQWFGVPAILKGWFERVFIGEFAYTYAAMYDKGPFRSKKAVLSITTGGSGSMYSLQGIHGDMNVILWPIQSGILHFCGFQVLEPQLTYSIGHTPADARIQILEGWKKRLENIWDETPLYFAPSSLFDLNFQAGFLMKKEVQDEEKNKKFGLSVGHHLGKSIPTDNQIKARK

SMILES	SI (IC50 HFF-1/IC50 cancer line) Colo-829 [1]	IC50 [1] [nM]	SI (IC50 HFF-1/IC50 cancer line) T47D [2]	IC50 [2] [nM]	SI (IC50 HFF-1/IC50 cancer line) MDA-MB-231 [3]	IC50 [3] [nM]	NQO1 activity (enzymatic conversion rate) [4] [µmol NADPH/µmol NQO1/min]	Enzymatic conversion rate relative to streptonigrin ([4]; fold higher than streptonigrin)	IC50 [5] [nM]	SI (IC50 HFF-1/IC50 cancer line) A549 [6]	IC50 [6] [nM]	SI (IC50 HFF-1/IC50 cancer line) MCF-7 [7]	IC50 [7] [nM]	SI (IC50 HFF-1/IC50 cancer line) SK-OV-3 [8]	IC50 [8] [nM]	melting point [°C]
O=C1C(Cl)=C(Oc2cccc3cccnc23)C(=O)c2ncccc21 [Compound 11a, 6-chloro-7-(quinolin-8-yloxy)quinoline-5,8-dione]	0.55	18500 ± 1310	0.55	18700 ± 710	0.89	11500 ± 190	1399 ± 26	about 2 times	10200 ± 160	6.08	1680 ± 50	0.53	19400 ± 370	6.59	1550 ± 200	112 to 114
O=Cc1ccc2cccc(OC3=C(Cl)C(=O)c4cccnc4C3=O)c2n1 [Compound 11c, 8-[(6-chloro-5,8-dioxo-5,8-dihydroquinolin-7-yl)oxy]quinoline-2-carbaldehyde]	0.90	11600 ± 1360	0.47	22200 ± 660	0.73	14400 ± 2010	1100 ± 35	–	10500 ± 870	7.26	1450 ± 130	0.57	18300 ± 1230	5.91	1780 ± 310	168 to 170
O=C1C(Cl)=C(Oc2cccc3ccc(Cl)nc23)C(=O)c2ncccc21 [Compound 11d, 6-chloro-7-[(2-chloroquinolin-8-yl)oxy]quinoline-5,8-dione]	9.48	1450 ± 240	6.54	2100 ± 110	6.77	2030 ± 50	800 ± 64	–	13700 ± 1270	8.04	1710 ± 30	6.51	2110 ± 90	8.81	1560 ± 110	123 to 125
Cc1ccc2c(n1)C(=O)C(Oc1cccc3cccnc13)=C(Cl)C2=O [Compound 12a, 6-chloro-2-methyl-7-(quinolin-8-yloxy)quinoline-5,8-dione]	11.41	1520 ± 350	10.91	1590 ± 150	8.80	1970 ± 150	1505 ± 54	–	17300 ± 890	20.40	850 ± 40	8.30	2090 ± 20	346.80	50 ± 20	115 to 117
Cc1ccc2c(n1)C(=O)C(Oc1cccc3ccc(C=O)nc13)=C(Cl)C2=O [Compound 12c, 8-[(6-chloro-2-methyl-5,8-dioxo-5,8-dihydroquinolin-7-yl)oxy]quinoline-2-carbaldehyde]	1.23	14600 ± 510	0.77	23300 ± 1120	0.85	21120 ± 110	470 ± 22	–	17900 ± 1370	5.70	3140 ± 430	0.94	19100 ± 950	8.28	2160 ± 190	184 to 186
Cc1ccc2c(n1)C(=O)C(Oc1cccc3ccc(Cl)nc13)=C(Cl)C2=O [Compound 12d, 6-chloro-2-methyl-7-[(2-chloroquinolin-8-yl)oxy]quinoline-5,8-dione]	0.78	13100 ± 490	0.64	16200 ± 980	0.66	15600 ± 790	890 ± 21	–	10300 ± 1650	7.04	1460 ± 60	0.59	17400 ± 820	0.67	15400 ± 480	120 to 122
O=C1C(Cl)=C(Oc2cccc3cccnc23)C(=O)c2cnccc21 [Compound 13a, 6-chloro-7-(quinolin-8-yloxy)isoquinoline-5,8-dione]	162.88	170 ± 20	307.67	90 ± 40	27.15	1020 ± 150	1210 ± 23	–	27700 ± 700	923.00	30 ± 10	23.87	1160 ± 150	60.20	460 ± 20	86 to 88
O=Cc1ccc2cccc(OC3=C(Cl)C(=O)c4ccncc4C3=O)c2n1 [Compound 13c, 8-[(6-chloro-5,8-dioxo-5,8-dihydroisoquinolin-7-yl)oxy]quinoline-2-carbaldehyde]	38.97	340 ± 280	25.48	520 ± 80	17.67	750 ± 90	318 ± 19	–	13200 ± 850	10.04	1320 ± 320	14.89	890 ± 30	41.41	320 ± 10	166 to 168
O=C1C(Cl)=C(Oc2cccc3ccc(Cl)nc23)C(=O)c2cnccc21 [Compound 13d, 6-chloro-7-[(2-chloroquinolin-8-yl)oxy]isoquinoline-5,8-dione]	5.66	1960 ± 80	–	> 30000	6.64	1670 ± 110	633 ± 32	–	11100 ± 1070	184.83	60 ± 10	6.34	1750 ± 190	0.65	17100 ± 1760	127 to 129
